In ChEMBL document CHEMBL5696442, “Discovery of type II inhibitors of TGFβ-activated kinase 1 (TAK1) and mitogen-activated protein kinase kinase kinase kinase 2 (MAP4K2)” (J Med Chem, 2015) one finds inhibition and residual activity data, which are given here for three compounds.

The target in experiment [1] is Serine/threonine-protein kinase WNK1 (Homo sapiens) (UniProt Q9H4A3). Kind of experiment: Inhibition of Wnk1 Lys2 labeling site in human Huh-7 cells at 1 uM by KiNativ Profiling analysis relative to control. Type of experiment: cell-based.
The target of experiment [2] is Protein kinase C alpha type (Homo sapiens) (UniProt P17252). Kind of experiment: Inhibition of PKCa Lys2 labeling site in human Huh-7 cells at 1 uM by KiNativ Profiling analysis relative to control. Type of experiment: cell-based.
The target in experiment [3] is T1, Serine/threonine-protein kinase Sgk3 (Homo sapiens) (UniProt Q96BR1).
T1 sequence (whole entry): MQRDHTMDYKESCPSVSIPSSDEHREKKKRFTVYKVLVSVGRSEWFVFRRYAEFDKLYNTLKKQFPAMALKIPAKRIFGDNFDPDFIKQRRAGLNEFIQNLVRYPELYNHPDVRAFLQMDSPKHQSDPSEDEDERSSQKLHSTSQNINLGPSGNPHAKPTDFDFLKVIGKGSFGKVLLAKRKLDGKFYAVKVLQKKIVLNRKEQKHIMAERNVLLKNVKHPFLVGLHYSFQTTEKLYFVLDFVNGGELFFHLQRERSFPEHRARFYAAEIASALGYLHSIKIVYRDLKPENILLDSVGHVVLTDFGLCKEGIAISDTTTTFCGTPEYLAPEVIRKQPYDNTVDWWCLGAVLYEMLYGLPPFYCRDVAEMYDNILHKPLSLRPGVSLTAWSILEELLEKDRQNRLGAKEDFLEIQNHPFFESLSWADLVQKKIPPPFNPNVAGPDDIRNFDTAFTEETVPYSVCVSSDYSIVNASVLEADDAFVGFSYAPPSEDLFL
Kind of experiment: Inhibition of SGK3 Lys1 labeling site in human Huh-7 cell lysate at 1 uM by KiNativ Profiling analysis relative to control. Type of experiment: subcellular.

Experiment [4] concerns the target Ribosomal protein S6 kinase alpha-3 (Homo sapiens) (UniProt P51812). Kind of experiment: Inhibition of RSK2 domain1 Lys2 labeling site in human Huh-7 cell lysate at 1 uM by KiNativ Profiling analysis relative to control. Type of experiment: subcellular.
Experiment [5] has as its target Mitogen-activated protein kinase 7 (Homo sapiens) (UniProt Q13164). Kind of experiment: Inhibition of Erk5 Lys2 labeling site in human Huh-7 cell lysate at 1 uM by KiNativ Profiling analysis relative to control. Type of experiment: subcellular.
The target in experiment [6] is Mitogen-activated protein kinase kinase kinase 1 (Homo sapiens) (UniProt Q13233). Kind of experiment: Inhibition of MAP3K1 Lys2 labeling site in human Huh-7 cells at 1 uM by KiNativ Profiling analysis relative to control. Type of experiment: cell-based.
Mitogen-activated protein kinase kinase kinase 1 (Homo sapiens), sequence (Q13233 whole entry): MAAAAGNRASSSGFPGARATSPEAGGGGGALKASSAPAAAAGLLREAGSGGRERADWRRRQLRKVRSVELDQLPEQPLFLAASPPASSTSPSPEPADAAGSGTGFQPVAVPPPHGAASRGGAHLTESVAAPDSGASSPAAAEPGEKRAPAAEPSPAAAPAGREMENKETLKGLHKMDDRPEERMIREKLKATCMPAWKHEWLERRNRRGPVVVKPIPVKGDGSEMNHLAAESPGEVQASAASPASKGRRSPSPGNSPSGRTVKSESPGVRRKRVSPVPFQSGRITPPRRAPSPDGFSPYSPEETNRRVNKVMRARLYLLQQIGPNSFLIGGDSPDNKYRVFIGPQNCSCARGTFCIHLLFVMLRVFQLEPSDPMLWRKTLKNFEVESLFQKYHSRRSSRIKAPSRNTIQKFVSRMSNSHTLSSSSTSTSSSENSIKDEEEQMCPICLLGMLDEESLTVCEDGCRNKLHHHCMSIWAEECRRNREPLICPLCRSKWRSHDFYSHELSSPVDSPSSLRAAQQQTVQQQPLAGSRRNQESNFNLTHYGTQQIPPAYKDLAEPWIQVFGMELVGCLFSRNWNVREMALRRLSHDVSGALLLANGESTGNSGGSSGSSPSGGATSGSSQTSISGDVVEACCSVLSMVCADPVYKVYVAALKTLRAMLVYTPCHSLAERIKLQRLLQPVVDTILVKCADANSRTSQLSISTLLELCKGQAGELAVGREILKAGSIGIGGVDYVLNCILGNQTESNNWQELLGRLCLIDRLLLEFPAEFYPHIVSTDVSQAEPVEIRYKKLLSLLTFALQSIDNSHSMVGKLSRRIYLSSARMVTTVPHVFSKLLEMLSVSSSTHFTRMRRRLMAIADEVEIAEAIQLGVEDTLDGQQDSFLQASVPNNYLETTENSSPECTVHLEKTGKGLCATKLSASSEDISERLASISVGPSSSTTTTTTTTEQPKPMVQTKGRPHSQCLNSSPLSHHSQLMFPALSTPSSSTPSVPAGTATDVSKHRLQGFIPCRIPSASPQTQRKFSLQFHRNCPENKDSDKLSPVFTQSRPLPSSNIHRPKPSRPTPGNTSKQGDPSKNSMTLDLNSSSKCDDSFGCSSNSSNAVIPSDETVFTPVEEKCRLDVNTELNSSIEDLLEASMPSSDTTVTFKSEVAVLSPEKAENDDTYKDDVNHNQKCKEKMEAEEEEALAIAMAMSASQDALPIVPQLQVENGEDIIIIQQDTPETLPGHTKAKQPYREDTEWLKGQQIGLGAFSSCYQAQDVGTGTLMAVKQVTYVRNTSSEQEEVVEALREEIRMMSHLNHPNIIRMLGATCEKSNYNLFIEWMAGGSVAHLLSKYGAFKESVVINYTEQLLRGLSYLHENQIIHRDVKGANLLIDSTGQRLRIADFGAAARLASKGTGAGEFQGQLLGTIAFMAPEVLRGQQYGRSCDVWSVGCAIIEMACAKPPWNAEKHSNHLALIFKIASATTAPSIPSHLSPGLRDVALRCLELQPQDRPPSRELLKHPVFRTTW
The target of experiment [7] is Wee1-like protein kinase (Homo sapiens) (UniProt P30291). Kind of experiment: Inhibition of Wee1 Lys2 labeling site in human A-375 cells at 0.05 uM by KiNativ Profiling analysis relative to control. Type of experiment: cell-based.
The target of experiment [8] is Cyclin-dependent kinase 2 homolog (Plasmodium falciparum (isolate K1 / Thailand)) (UniProt Q07785). Kind of experiment: Inhibition of Plasmodium falciparum PK5 at 1 uM by Ambit Kinomescan binding assay relative to control; values are per cent of control.
Cyclin-dependent kinase 2 homolog (Plasmodium falciparum (isolate K1 / Thailand)), sequence (Q07785 whole entry): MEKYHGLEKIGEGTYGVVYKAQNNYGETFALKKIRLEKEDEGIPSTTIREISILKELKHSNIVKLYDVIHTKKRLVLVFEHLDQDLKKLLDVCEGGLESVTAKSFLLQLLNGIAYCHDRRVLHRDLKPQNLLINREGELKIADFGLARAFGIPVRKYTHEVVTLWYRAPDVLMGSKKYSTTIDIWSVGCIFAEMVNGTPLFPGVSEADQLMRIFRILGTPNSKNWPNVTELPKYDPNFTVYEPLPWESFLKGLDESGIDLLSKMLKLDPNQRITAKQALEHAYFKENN
Experiment [9] concerns the target Serine/threonine-protein kinase SIK1 (Homo sapiens) (UniProt P57059). Kind of experiment: Inhibition of SIK (unknown origin) at 1 uM by Ambit Kinomescan binding assay relative to control.
Experiment [10] has as its target RAC-alpha serine/threonine-protein kinase (Homo sapiens) (UniProt P31749). Kind of experiment: Inhibition of AKT1 ATP Loop labeling site in human A-375 cells at 5 uM by KiNativ Profiling analysis relative to control. Type of experiment: cell-based.
Experiment [11] addresses SNF-related serine/threonine-protein kinase (Homo sapiens) (UniProt Q9NRH2). Kind of experiment: Inhibition of SNRK (unknown origin) at 1 uM by Ambit Kinomescan binding assay relative to control.
The target of experiment [12] is Mitogen-activated protein kinase kinase kinase 11 (Homo sapiens) (UniProt Q16584). Kind of experiment: Inhibition of MLK3 K2 labeling site in human Huh-7 cells at 1 uM by KiNativ Profiling analysis relative to control. Type of experiment: cell-based.
Mitogen-activated protein kinase kinase kinase 11 (Homo sapiens), sequence (Q16584 whole entry, looked up): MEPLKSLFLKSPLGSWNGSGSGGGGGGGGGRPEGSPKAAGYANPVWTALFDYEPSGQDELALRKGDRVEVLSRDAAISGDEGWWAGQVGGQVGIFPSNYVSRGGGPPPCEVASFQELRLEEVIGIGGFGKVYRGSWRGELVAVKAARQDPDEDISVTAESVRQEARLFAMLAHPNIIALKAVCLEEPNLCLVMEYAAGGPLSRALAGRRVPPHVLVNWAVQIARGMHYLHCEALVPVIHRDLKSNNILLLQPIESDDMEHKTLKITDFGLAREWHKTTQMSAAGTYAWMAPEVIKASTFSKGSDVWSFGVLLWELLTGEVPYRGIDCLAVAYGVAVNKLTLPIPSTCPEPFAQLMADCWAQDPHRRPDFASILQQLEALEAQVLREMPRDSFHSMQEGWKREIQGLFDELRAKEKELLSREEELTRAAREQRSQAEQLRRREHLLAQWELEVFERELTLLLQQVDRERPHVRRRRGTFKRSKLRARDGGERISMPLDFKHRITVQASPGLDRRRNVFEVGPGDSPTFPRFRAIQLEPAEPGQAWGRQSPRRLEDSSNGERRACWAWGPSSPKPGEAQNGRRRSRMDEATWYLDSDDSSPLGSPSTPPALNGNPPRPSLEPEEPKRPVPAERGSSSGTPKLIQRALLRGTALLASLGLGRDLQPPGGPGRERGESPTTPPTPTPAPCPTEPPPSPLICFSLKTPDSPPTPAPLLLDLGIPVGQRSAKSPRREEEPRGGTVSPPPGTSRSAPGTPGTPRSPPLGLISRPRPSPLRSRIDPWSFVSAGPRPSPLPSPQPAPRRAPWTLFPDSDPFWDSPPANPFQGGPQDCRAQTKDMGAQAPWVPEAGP
The target of experiment [13] is Epidermal growth factor receptor (Homo sapiens) (UniProt P00533). Kind of experiment: Inhibition of EGFR Lys1 labeling site in human A-375 cells at 5 uM by KiNativ Profiling analysis relative to control. Type of experiment: cell-based.
For experiment [14], the target named is Activin receptor type-2B (Homo sapiens) (UniProt Q13705). Kind of experiment: Inhibition of ACVR2B (unknown origin) at 10 uM by Ambit Kinomescan binding assay.
For experiment [15], the target named is T2, Serine/threonine-protein kinase D3 (Homo sapiens) (UniProt O94806).
T2 sequence (whole entry): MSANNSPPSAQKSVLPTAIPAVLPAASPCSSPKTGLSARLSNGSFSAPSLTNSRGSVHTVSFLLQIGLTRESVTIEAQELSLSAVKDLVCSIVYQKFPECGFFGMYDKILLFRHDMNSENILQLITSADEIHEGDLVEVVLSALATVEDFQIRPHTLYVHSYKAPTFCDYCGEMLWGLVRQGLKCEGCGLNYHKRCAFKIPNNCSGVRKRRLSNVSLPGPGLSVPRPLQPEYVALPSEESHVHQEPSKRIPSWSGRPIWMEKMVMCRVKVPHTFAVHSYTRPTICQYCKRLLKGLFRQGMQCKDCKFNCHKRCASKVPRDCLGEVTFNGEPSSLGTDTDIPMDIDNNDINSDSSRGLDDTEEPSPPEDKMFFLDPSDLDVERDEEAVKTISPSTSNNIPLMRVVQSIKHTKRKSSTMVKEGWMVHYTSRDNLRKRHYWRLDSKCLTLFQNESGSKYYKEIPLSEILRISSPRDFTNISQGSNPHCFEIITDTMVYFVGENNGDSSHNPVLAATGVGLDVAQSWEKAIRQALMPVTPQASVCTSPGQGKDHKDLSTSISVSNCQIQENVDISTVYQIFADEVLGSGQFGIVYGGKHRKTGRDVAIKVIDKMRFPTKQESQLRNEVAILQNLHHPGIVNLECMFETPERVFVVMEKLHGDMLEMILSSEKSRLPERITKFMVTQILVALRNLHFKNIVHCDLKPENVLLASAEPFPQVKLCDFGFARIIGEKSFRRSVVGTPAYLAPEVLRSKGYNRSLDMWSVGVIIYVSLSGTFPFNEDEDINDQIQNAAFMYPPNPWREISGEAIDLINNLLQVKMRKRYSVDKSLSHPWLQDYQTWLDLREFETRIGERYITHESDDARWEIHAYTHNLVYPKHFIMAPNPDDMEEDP
Kind of experiment: Inhibition of PKD3 K2 labeling site in human Huh-7 cells at 10 uM by KiNativ Profiling analysis relative to control. Type of experiment: cell-based.

For experiment [16], the target named is RAC-beta serine/threonine-protein kinase (Homo sapiens) (UniProt P31751). Kind of experiment: Inhibition of AKT2 (unknown origin) at 10 uM by Ambit Kinomescan binding assay.
The target in experiment [17] is Phosphatidylinositol 4-kinase alpha (Homo sapiens) (UniProt P42356). Kind of experiment: Inhibition of PIK4CA ATP labeling site in human Huh-7 cells at 1 uM by KiNativ Profiling analysis relative to control. Type of experiment: cell-based.
Experiment [18] has as its target Mitogen-activated protein kinase kinase kinase 20 (Homo sapiens, UniProt Q9NYL2). Kind of experiment: Inhibition of ZAK K1 labeling site in human Huh-7 cells at 1 uM by KiNativ Profiling analysis relative to control. Type of experiment: cell-based.

The source made the active and inactive calls. No cut-off for these calls is given here.

Mitogen-activated protein kinase 7 (Homo sapiens), sequence (Q13164 2-816 limits assumed): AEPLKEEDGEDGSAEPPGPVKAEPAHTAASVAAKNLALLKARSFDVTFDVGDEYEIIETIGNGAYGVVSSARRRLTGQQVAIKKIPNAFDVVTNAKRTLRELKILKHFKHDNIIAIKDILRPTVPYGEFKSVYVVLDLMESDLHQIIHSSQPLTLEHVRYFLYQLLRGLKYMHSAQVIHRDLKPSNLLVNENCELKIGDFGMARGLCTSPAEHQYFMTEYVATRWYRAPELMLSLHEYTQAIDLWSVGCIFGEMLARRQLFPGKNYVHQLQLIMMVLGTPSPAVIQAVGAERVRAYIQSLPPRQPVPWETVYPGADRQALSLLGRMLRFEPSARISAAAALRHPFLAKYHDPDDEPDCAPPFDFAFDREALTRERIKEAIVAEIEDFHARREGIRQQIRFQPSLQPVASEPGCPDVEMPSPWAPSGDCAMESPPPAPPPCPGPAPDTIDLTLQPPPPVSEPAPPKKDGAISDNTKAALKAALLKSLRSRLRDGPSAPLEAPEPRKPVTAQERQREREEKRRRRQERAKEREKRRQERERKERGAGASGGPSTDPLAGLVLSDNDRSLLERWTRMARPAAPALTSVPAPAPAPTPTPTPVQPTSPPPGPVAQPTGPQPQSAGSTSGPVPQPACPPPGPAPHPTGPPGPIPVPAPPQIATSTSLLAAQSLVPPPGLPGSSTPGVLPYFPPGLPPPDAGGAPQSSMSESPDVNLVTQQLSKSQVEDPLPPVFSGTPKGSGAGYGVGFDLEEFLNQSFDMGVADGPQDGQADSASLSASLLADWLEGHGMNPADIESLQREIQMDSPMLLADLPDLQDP
RAC-alpha serine/threonine-protein kinase (Homo sapiens), sequence (P31749 whole entry): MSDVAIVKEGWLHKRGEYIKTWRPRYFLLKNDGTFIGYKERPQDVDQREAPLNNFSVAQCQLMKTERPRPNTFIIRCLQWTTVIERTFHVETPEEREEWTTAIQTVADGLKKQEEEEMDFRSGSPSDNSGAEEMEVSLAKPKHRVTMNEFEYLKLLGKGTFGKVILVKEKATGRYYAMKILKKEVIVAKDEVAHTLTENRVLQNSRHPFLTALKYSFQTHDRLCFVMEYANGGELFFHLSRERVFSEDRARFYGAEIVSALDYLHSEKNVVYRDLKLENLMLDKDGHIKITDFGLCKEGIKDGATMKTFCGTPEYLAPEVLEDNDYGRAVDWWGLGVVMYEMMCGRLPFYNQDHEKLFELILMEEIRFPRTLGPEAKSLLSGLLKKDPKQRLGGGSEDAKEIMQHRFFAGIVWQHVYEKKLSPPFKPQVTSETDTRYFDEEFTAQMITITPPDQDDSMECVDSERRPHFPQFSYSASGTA

Regarding `CNc1cc(Oc2cc(C(=O)Nc3cc(N4CCN(C)CC4)cc(C(F)(F)F)c3)ccc2C)ncn1`, the inhibition is 15.3% in experiment [1]; 64.8% in experiment [2]; 3.5% in [3]; 20.7% in experiment [4]; -6.5% in experiment [5]; 27% in experiment [6].
With `CCN1CCN(Cc2ccc(NC(=O)c3ccc(C)c(/C=C/c4cnc5[nH]ccc5c4OC)c3)cc2C(F)(F)F)CC1`, the inhibition is 19.2% in [7], 2.1% in experiment [9], 10.4% in experiment [10] and 100% in experiment [11]. The residual activity in experiment [8] was found to be 100%.
With `CCN1CCN(Cc2ccc(NC(=O)c3ccc(C)c(Oc4ccnc5[nH]ccc45)c3)cc2C(F)(F)F)CC1`, the inhibition in experiment [12] was -1.6%; in experiment [13], -1.5%; in experiment [15], 17.2%; in experiment [17] it was 3.5%; in experiment [18], 50.3%. In addition, the inhibition result in experiment [14] and in experiment [16] was “inactive” throughout.

A word on the inhibition: it is the change of the read-out against control, counted positive when it falls. Broadly, the residual activity is the share of the control activity or signal that is left under treatment. Low readings indicate a large loss of activity, high ones a small loss of activity.
